Assay [1] deals with Staphylococcus aureus. As to the kind of experiment: Antibacterial activity against methicillin-resistant Staphylococcus aureus N315 assessed as growth inhibition measured after 24 hrs by two-fold broth dilution method. In kind it is functional. To be noted: N315, 24 h. Background: Dilution methods test growth across graded concentrations, often in twofold steps.
In a further assay the test system is Aspergillus fumigatus. As to the kind of experiment: Antifungal activity against Aspergillus fumigatus GIMCC 3.19 assessed as growth inhibition measured after 24 hrs by two-fold broth dilution method. In kind it is functional. The note with it: GIMCC 3.19, 24 h.
For a further assay, the system named is Bacillus spizizenii. Briefly: Antibacterial activity against Bacillus subtilis ATCC 6633 assessed as growth inhibition measured after 24 hrs by two-fold broth dilution method. Format: functional. To be noted: ATCC 6633, 24 h.
For another assay, the system named is Pseudomonas aeruginosa. As to the kind of experiment: Antibacterial activity against Pseudomonas aeruginosa ATCC 9027 assessed as growth inhibition measured after 24 hrs by two-fold broth dilution method. In kind it is functional. To be noted: ATCC 9027, 24 h.
Assay [2] has as its system Candida albicans. As to the kind of experiment: Antifungal activity against Candida albicans ATCC 90023 assessed as growth inhibition measured after 24 hrs by two-fold broth dilution method. Format: functional. The note with it: ATCC 90023, 24 h.
Another assay has as its system Candida tropicalis. As to the kind of experiment: Inhibition of Candida tropicalis ATCC 750 chitin synthase at 300 ug/ml using UDP-GlcNAc as substrate relative to control.
Another assay has as its system Cryptococcus neoformans. Briefly: Antifungal activity against Cryptococcus neoformans ATCC 32719 assessed as growth inhibition measured after 24 hrs by two-fold broth dilution method. In kind it is functional. The note with it: ATCC 32719, 24 h.
Assay [3] in a line: Inhibition of Candida tropicalis ATCC 750 chitin synthase using UDP-GlcNAc as substrate.
The next assay concerns Escherichia coli. As to the kind of experiment: Antibacterial activity against Escherichia coli JM 109 assessed as growth inhibition measured after 24 hrs by two-fold broth dilution method. To be noted: JM 109, 24 h. Format: functional.
Assay [4] deals with Candida albicans. As to the kind of experiment: Antifungal activity against Candida albicans ATCC 76615 assessed as growth inhibition measured after 24 hrs by two-fold broth dilution method. To be noted: ATCC 76615, 24 h. Format: functional.
Another assay relates to Aspergillus flavus. As to the kind of experiment: Antifungal activity against Aspergillus flavus ATCC 16870 assessed as growth inhibition measured after 24 hrs by two-fold broth dilution method. Format: functional. The note with it: ATCC 16870, 24 h.
Assay [5] relates to Staphylococcus aureus. As to the kind of experiment: Antibacterial activity against Staphylococcus aureus ATCC 25923 assessed as growth inhibition measured after 24 hrs by two-fold broth dilution method. In kind it is functional. To be noted: ATCC 25923, 24 h.
For a further assay, the system named is Proteus vulgaris. Briefly: Antibacterial activity against Bacillus proteus ATCC 8427 assessed as growth inhibition measured after 24 hrs by two-fold broth dilution method. In kind it is functional. To be noted: ATCC 8427, 24 h.

Converted amounts (≈) assume the structure as drawn.

For `O=C(Nc1ccc(Cl)cc1Cl)[C@H](O)[C@@H](O)C(=O)N1CCC2(CCNC2=O)CC1`, the MIC – broadly, the lowest concentration that inhibits growth of the organism – with Staphylococcus aureus [1] stood at 150 µM (≈ 64.5 µg/mL); in the assay with Aspergillus fumigatus, 590 µM (≈ 254 µg/mL); in the assay on Bacillus spizizenii it was 300 µM (≈ 129 µg/mL); with Pseudomonas aeruginosa, 300 µM (≈ 129 µg/mL); in the assay on Candida albicans [2], 300 µM (≈ 129 µg/mL); in the assay on Cryptococcus neoformans, 590 µM (≈ 254 µg/mL). Further, the MIC in the assay on Escherichia coli is 150 µM (≈ 64.5 µg/mL); in the assay on Candida albicans [4] it was 590 µM (≈ 254 µg/mL); in the assay on Aspergillus flavus, 300 µM (≈ 129 µg/mL); in the assay with Staphylococcus aureus [5] it was 590 µM (≈ 254 µg/mL); in the assay on Proteus vulgaris it was 150 µM (≈ 64.5 µg/mL). Also, the inhibition (usually the percentage by which the read-out fell short of the control) in the assay with Candida tropicalis amounted to 82.8%. For the same molecule, the IC50 (as a rule, the midpoint of a concentration-inhibition curve) in assay [3] is 130 µM.
As for `O=C(Nc1ccc(F)cc1)[C@H](O)[C@@H](O)C(=O)N1CCC2(CCNC2=O)CC1`, the MIC in the assay on Staphylococcus aureus [1] is 340 µM (≈ 129 µg/mL); in the assay on Aspergillus fumigatus, 340 µM (≈ 129 µg/mL); with Bacillus spizizenii, 340 µM (≈ 129 µg/mL); in the assay with Pseudomonas aeruginosa, 1350 µM (≈ 512 µg/mL); in the assay on Candida albicans [2], 340 µM (≈ 129 µg/mL); in the assay with Cryptococcus neoformans, 670 µM (≈ 254 µg/mL). Besides, the MIC stood at 670 µM (≈ 254 µg/mL) in the assay with Escherichia coli; 340 µM (≈ 129 µg/mL) in the assay with Candida albicans [4]; 340 µM (≈ 129 µg/mL) in the assay on Aspergillus flavus; 670 µM (≈ 254 µg/mL) in the assay on Staphylococcus aureus [5]; 340 µM (≈ 129 µg/mL) in the assay on Proteus vulgaris. Also, the inhibition with Candida tropicalis was found to be 36.7%.
Turning to `O=C(Nc1ccc(F)c(F)c1)[C@H](O)[C@@H](O)C(=O)N1CCC2(CCNC2=O)CC1`, the MIC with Staphylococcus aureus [1] came to 1290 µM (≈ 513 µg/mL); in the assay on Aspergillus fumigatus, 1290 µM (≈ 513 µg/mL); in the assay on Bacillus spizizenii it was 640 µM (≈ 254 µg/mL); with Pseudomonas aeruginosa, 320 µM (≈ 127 µg/mL); with Candida albicans [2], 320 µM (≈ 127 µg/mL); with Cryptococcus neoformans, 80 µM (≈ 31.8 µg/mL). Further, the MIC stood at 640 µM (≈ 254 µg/mL) in the assay on Escherichia coli; 640 µM (≈ 254 µg/mL) in the assay on Candida albicans [4]; 320 µM (≈ 127 µg/mL) in the assay on Aspergillus flavus; 640 µM (≈ 254 µg/mL) in the assay with Staphylococcus aureus [5]; 640 µM (≈ 254 µg/mL) with Proteus vulgaris. The molecule also showed an inhibition in the assay with Candida tropicalis of 36.7%.
On to `OC(Cn1cncn1)(Cn1cncn1)c1ccc(F)cc1F` [FLUCONAZOLE], for which the MIC is 104 µM (≈ 31.9 µg/mL) with Aspergillus fumigatus; 104 µM (≈ 31.9 µg/mL) in the assay on Candida albicans [2]; 52 µM (≈ 15.9 µg/mL) in the assay on Cryptococcus neoformans; 52 µM (≈ 15.9 µg/mL) in the assay on Candida albicans [4]; 209 µM (≈ 64 µg/mL) in the assay on Aspergillus flavus.
`O=C(Nc1ccc(Br)cc1)[C@H](O)[C@@H](O)C(=O)N1CCC2(CCNC2=O)CC1`: the minimum inhibitory concentration (MIC) with Staphylococcus aureus [1] was found to be 1160 µM (≈ 511 µg/mL); in the assay on Aspergillus fumigatus it was 1160 µM (≈ 511 µg/mL); in the assay on Bacillus spizizenii, 580 µM (≈ 255 µg/mL); in the assay with Pseudomonas aeruginosa it was 290 µM (≈ 128 µg/mL); in the assay with Candida albicans [2] it was 290 µM (≈ 128 µg/mL); in the assay with Cryptococcus neoformans, 1160 µM (≈ 511 µg/mL). Besides, the MIC in the assay on Escherichia coli came to 1160 µM (≈ 511 µg/mL); with Candida albicans [4] it was 290 µM (≈ 128 µg/mL); in the assay on Aspergillus flavus it was 150 µM (≈ 66 µg/mL); in the assay on Staphylococcus aureus [5], 580 µM (≈ 255 µg/mL); in the assay with Proteus vulgaris, 1160 µM (≈ 511 µg/mL). The molecule further gave an inhibition in the assay on Candida tropicalis of 74.7%. Besides, the 50% inhibitory concentration (IC50) in [3] came to 180 µM.
Turning to `CN[C@@H]1[C@H](O[C@H]2[C@H](O[C@H]3[C@H](O)[C@@H](O)[C@H](N=C(N)N)[C@@H](O)[C@@H]3N=C(N)N)O[C@@H](C)[C@]2(O)C=O)O[C@@H](CO)[C@H](O)[C@H]1O` [STREPTOMYCIN], the MIC with Staphylococcus aureus [1] worked out at 55 µM (≈ 32 µg/mL); with Bacillus spizizenii, 28 µM (≈ 16.3 µg/mL); with Pseudomonas aeruginosa, 7 µM (≈ 4.07 µg/mL); in the assay on Escherichia coli, 14 µM (≈ 8.14 µg/mL); with Staphylococcus aureus [5] it was 28 µM (≈ 16.3 µg/mL); with Proteus vulgaris, 14 µM (≈ 8.14 µg/mL).
In the case of `O=C(Nc1ccccc1)[C@H](O)[C@@H](O)C(=O)N1CCC2(CCNC2=O)CC1`, the minimal inhibitory concentration (MIC) with Staphylococcus aureus [1] worked out at 710 µM (≈ 257 µg/mL); in the assay with Aspergillus fumigatus, 1420 µM (≈ 513 µg/mL); with Bacillus spizizenii, 710 µM (≈ 257 µg/mL); with Pseudomonas aeruginosa, 710 µM (≈ 257 µg/mL); in the assay on Candida albicans [2], 710 µM (≈ 257 µg/mL); in the assay on Cryptococcus neoformans, 710 µM (≈ 257 µg/mL). Besides, the MIC with Escherichia coli came to 710 µM (≈ 257 µg/mL); with Candida albicans [4] it was 710 µM (≈ 257 µg/mL); in the assay on Aspergillus flavus, 1420 µM (≈ 513 µg/mL); in the assay on Staphylococcus aureus [5], 1420 µM (≈ 513 µg/mL); in the assay on Proteus vulgaris, 1420 µM (≈ 513 µg/mL). Further, in the assay on Candida tropicalis, the inhibition amounted to 1.8%.
For `O=C(Nc1cccc(C(F)(F)F)c1)[C@H](O)[C@@H](O)C(=O)N1CCC2(CCNC2=O)CC1`, the MIC in the assay on Staphylococcus aureus [1] was 300 µM (≈ 129 µg/mL); in the assay on Aspergillus fumigatus it was 600 µM (≈ 258 µg/mL); in the assay on Bacillus spizizenii, 150 µM (≈ 64.4 µg/mL); with Pseudomonas aeruginosa, 300 µM (≈ 129 µg/mL); in the assay with Candida albicans [2], 300 µM (≈ 129 µg/mL); with Cryptococcus neoformans, 70 µM (≈ 30.1 µg/mL). Further, the MIC in the assay with Escherichia coli stood at 150 µM (≈ 64.4 µg/mL); in the assay on Candida albicans [4] it was 300 µM (≈ 129 µg/mL); with Aspergillus flavus, 60 µM (≈ 25.8 µg/mL); in the assay on Staphylococcus aureus [5] it was 300 µM (≈ 129 µg/mL); with Proteus vulgaris, 150 µM (≈ 64.4 µg/mL). In the assay with Candida tropicalis, this molecule displayed an inhibition of 47.1%.
Regarding `O=C(Nc1ccccc1F)[C@H](O)[C@@H](O)C(=O)N1CCC2(CCNC2=O)CC1`, the minimum inhibitory concentration (MIC) in the assay with Staphylococcus aureus [1] turned out to be 340 µM (≈ 129 µg/mL); in the assay on Aspergillus fumigatus, 670 µM (≈ 254 µg/mL); with Bacillus spizizenii, 670 µM (≈ 254 µg/mL); with Pseudomonas aeruginosa it was 1350 µM (≈ 512 µg/mL); with Candida albicans [2] it was 670 µM (≈ 254 µg/mL); in the assay on Cryptococcus neoformans it was 670 µM (≈ 254 µg/mL). Further, the MIC worked out at 670 µM (≈ 254 µg/mL) in the assay with Escherichia coli; 340 µM (≈ 129 µg/mL) in the assay with Candida albicans [4]; 340 µM (≈ 129 µg/mL) with Aspergillus flavus; 340 µM (≈ 129 µg/mL) with Staphylococcus aureus [5]; 670 µM (≈ 254 µg/mL) in the assay with Proteus vulgaris. Also, the inhibition in the assay with Candida tropicalis worked out at 23.1%.

The values above are taken from ChEMBL document CHEMBL4359915, “Design, synthesis and biological evaluation of novel diazaspiro[4.5]decan-1-one derivatives as potential chitin synthase inhibitors and antifungal agents” (Eur J Med Chem, 2019).
